In the SangsterLogP compilation:

Compound | logP
CCCN1C(=O)CC2CCC(C)C3CCC4(C)OOC23C1O4 (stereo not given) | 3.41
CC(C)CN1C(=O)CC2CCC(C)C3CCC4(C)OOC23C1O4 (stereo not given) | 3.66
CCCCCN1C(=O)CC2CCC(C)C3CCC4(C)OOC23C1O4 (stereo not given) | 4.24
CC1CCC2CC(=O)N(CCCc3ccccc3)C3OC4(C)CCC1C23OO4 (stereo not given) | 4.39
CC(C)CCN1C(=O)CC2CCC(C)C3CCC4(C)OOC23C1O4 (stereo not given) | 4.16
CC1CCC2CC(=O)N(Cc3ccc(Cl)cc3)C3OC4(C)CCC1C23OO4 (stereo not given) | 4.32
C[C@@H]1CC[C@H]2[C@@H](C)C(=O)O[C@@H]3O[C@@]4(C)CC[C@@H]1[C@]32OO4 (relative stereo) | 2.9
CC1CCC2CC(=O)N(CCc3ccccc3)C3OC4(C)CCC1C23OO4 (stereo not given) | 3.94
C[C@@H]1CC[C@H]2[C@@H](C)CO[C@@H]3O[C@]4(C)CC[C@@H]1[C@]32OO4 | 3.16
CC1CCC2CC(=O)N(CC(=O)O)C3OC4(C)CCC1C23OO4 (stereo not given) | 1.75
